Measured values: US4481137A, “Glycoproteins and processes for their production” (Mochida Pharmaceutical Co., Ltd., priority 1982, dated 1984)
In brackets after ≈: the same amount, converted by molar mass. Several values for one entry are separate records, joined by “and”; a condition that tells them apart may be missing. Equal values may be shown once.

Columns and labels:
Sarcoma 180 = test: Influence on mice transplanted with Sarcoma 180, survival; type: in vivo, mouse
Source text: (§1) Male mice (ddY-Strain) weighing 25-30 g were intraperitoneally transplanted with 3×10^6 cells per animal of Sarcoma 180 or Ehrlich ascites tumor and the period of survival in days was observed.

Ehrlich ascites tumor = test: Influence on mice transplanted with Ehrlich ascites tumor, survival; type: in vivo, mouse
Source text: as §1

mouse leukemia L1210 = test: Influence on the survival days of leukemic mice, L1210; type: in vivo
Source text: (§2) BDF1 -strain male mice weighing 20-25 g were intraperitoneally transplanted with 10^5 cells per animal of mouse leukemia L1210 or 10^6 cells per animal of mouse leukemia […], and the period of survival in days was observed.

mouse leukemia P388 = test: Influence on the survival days of leukemic mice, P388; type: in vivo
Source text: as §2

Lewis's lung carcinoma = test: Influence on the survival days of lung carcinoma bearing mice; type: in vivo, mouse
Source text: BDF1 -strain male mice weighing 20-25 g were transplanted with 2×10^6 cells of Lewis's lung carcinoma intramuscularly to the right thigh, and the survival days were observed.

mouse melanoma B 16 = test: Influence on the survival period of melanoma bearing mice; type: in vivo
Source text: BDF1 -strain male mice weighing 20-25 g had transplanted subcutaneously in their back 10^6 cells per animal of mouse melanoma B 16, and the survival days were observed.

Lewis's lung cancer = test: Influence on the lung metastasis of cancer; type: in vivo, mouse; settings: mean ± SE
Description: Groups of BDF1 -strain male mice weighing 20-30 g, 6 animals in each group, had transplanted subcutaneously into their backs 2 mm square segments of Lewis's lung cancer. […] On the 21st day after transplantation, the mass of primary tumor was isolated and weighed, and the number of the metastasized nodes in the animal's lungs was calculated according to the method of Wexler, H. (J. Natl. Cancer Institute, Vol. 36 641 (1966)).

[1] = test system: acute myelogenous leukemia cells M-1; test: Effect on inducing differentiation of tumor cells; type: cell-based; settings: 20.0 ng/ml, 48 h (control 1)
Description: According to the method of Hozumi, M. et al (Cancer Research, Vol, 40, 2919-2924 (1980)), 5×10^5 cells of acute myelogenous leukemia cells M-1 (supplied from Dr. Motoo Hozumi, Saitama Cancer Center) were suspended in 1 ml of Eagle's medium containing 10% calf serum and also containing amino acids and vitamins in amounts twice the ordinary levels, to which each test substance had been added, and cultured at 37° C. for 48 hours in a 5% CO2, 95% air atmosphere. Thereafter, the cells were resuspended in a medium containing 0.2% polystyrene latex particles (Dow Chemical Co.) and incubated at 37° C. for 4 hours. Then the total number of cells which phagocytotized the particles and the total number of cells were counted under a light microscope, and the differentiation rate was calculated from the ratio of these cells.

KB cells = test: Selectivity of cytotoxic effect, KB cells (nasopharynx cancer); type: cell-based, Human; settings: 48 h, 37°C
Description: (§3) Samples of 10^5 cells of each of tumor cell lines including KB cells (nasopharynx cancer), MX-1 cells (breast cancer, supplied from Dr. Shigeru Tsukagoshi, Cancer Institute), HEp-2 cells (throat cancer) and HEL cells (hepatoma, Flow Co.) and of normal cell lines including intestine 407 cells, Girardi heart cells, Chang Liver cells, Vero cells (monkey kidney) and MDCK cells (dog kidney) (Flow Co.), all of which had been precultured for 24 hours respectively, and 10^5 cells of each of P388 and L1210 cells (leukemia, supplied from Dr. Shigeru Tsukagoshi, Cancer Institute), which were used immediately, were each cultured in 1 ml of Eagle's medium containing 10% calf serum and each test substance at 37° C. for 48 hours in a 5% CO2, 95% air atmosphere. Thereafter the number of the viable cells not stained by Trypan Blue was counted under a light microscope, and the concentration of the test substance at which 50% of the cells are killed was calculated against a control taken as 100. […] One unit of the Lymphotoxins and CBF is expressed by a conventional index which is based on the cytotoxicity on mouse L cells (Eds., Bloom, B. R. & Grade, P. R. "In Vitro Methods in Cell-mediated Immunity", Academic Press,1979).

HEp-2 cells = test: Selectivity of cytotoxic effect, HEp-2 cells (throat cancer); type: cell-based, Human; settings: HEp-2, 48 h, 37°C
Description: as §3

HEL cells = test: Selectivity of cytotoxic effect, HEL cells (hepatoma); type: cell-based, Human; settings: 48 h, 37°C
Description: as §3

MX-1 cells = test: Selectivity of cytotoxic effect, MX-1 cells (breast cancer); type: cell-based, Human; settings: MX-1, 48 h, 37°C
Description: as §3

L1210 cells = test: Selectivity of cytotoxic effect, L1210 cells (leukemia); type: cell-based, Mouse; settings: L1210, 48 h, 37°C
Description: as §3

P388 cells = test: Selectivity of cytotoxic effect, P388 cells (leukemia); type: cell-based, Mouse; settings: P388, 48 h, 37°C
Description: as §3

intestine 407 cells = test: Selectivity of cytotoxic effect, normal cells intestine 407; type: cell-based, Human; settings: intestine 407 (normal), 37°C
Description: as §3

Chang Liver cells = test: Selectivity of cytotoxic effect, normal cells Chang Liver; type: cell-based, Human; settings: 48 h, 37°C
Description: as §3

Vero cells = test: Selectivity of cytotoxic effect, normal cells Vero (monkey kidney); type: cell-based; settings: 48 h, 37°C
Description: as §3

MDCK cells = test: Selectivity of cytotoxic effect, normal cells MDCK (dog kidney); type: cell-based; settings: 48 h, 37°C
Description: as §3

[2] = test system: Primary Culture Rat Liver; test: Selectivity of cytotoxic effect, primary culture rat liver; type: cell-based; settings: primary culture rat liver (normal), 48 h, 37°C; read-out: Concentration for 50% Inhibition of Growth
[3] = test system: tumor cells and normal cells; test: Cytotoxicity, selectivity tumor cells versus normal cells; type: cell-based
Source text: One unit of CB is defined to be the amount of the substance at which the growth of 10^5 nasopharynx cancer of KB cell is inhibited by 50%.
as §3

human breast cancer MX-1 = test: Influence on breast cancer bearing mice; type: in vivo, BALB/C strain nude mice; settings: daily dose 0.5 mg/kg, mean ± SE (control 9.7 ± 2.2)
Description: BALB/C strain nude mice weighing 20-25 g, 6 animals in each group, had transplanted subcutaneously into their backs 2 mm square segments of human breast cancer MX-1. CBX3 obtained in Example 26 or 29 was intravenously administered into the mice for 14 days from the 14th day after the transplantation. On the 15th day after the first administration,the volume of the primary tumor was measured.

[4] = test system: 3-Methylcholanthrene-induced tumor; test: Influence on methylcholanthrene-induced tumor; type: in vivo, ddY-strain mice; settings: daily dose 0.5 mg/kg, mean ± SE (control 10.5 ± 2.3)
Description: 3-Methylcholanthrene dissolved in olive oil was subcutaneously injected to the lateral abdomen of ddY-strain mice, weighing 20-25 g, 8 animals in each group, at 0.5 mg per mouse. CBX3 obtained in Example 26 or 29 was intravenously administered to the mice once a day for 21 days from about 60 days after the 3-Methylcholanthren injection. On the 21st day after the first CBX3 administration, the volume of the tumor was measured.

[5] = test system: tumor cells and normal cells; settings: as reported in the literature; cited from earlier work
[6] = Homo sapiens, read-out: Concentration for 50% Inhibition of Growth
[7] = Mus musculus, read-out: Concentration for 50% Inhibition of Growth
[8] = daily dose 0.5 mg/kg, 0.5 mg/kg

Compound: O=P1(N(CCCl)CCCl)NCCCO1 (centres unmarked) [Cyclophosphamide]
- Average Survival Days (% of control group) (Sarcoma 180; Sarcoma 180, daily dose 20 mg/kg, 20 mg/kg): 172% and 170%
- Average Survival Days (% of control group) (Ehrlich ascites tumor; daily dose 20 mg/kg, 20 mg/kg): 212% and 206%
- Average Survival Days (% of control group) (mouse leukemia L1210; L1210, daily dose 20 mg/kg, 20 mg/kg): 172% and 149%
- Average Survival Days (% of control group) (mouse leukemia P388; P388, daily dose 20 mg/kg, 20 mg/kg): 147% and 145%
- Average Survival Days (% of control group) (Lewis's lung carcinoma; daily dose 20 mg/kg, 20 mg/kg): 163% and 164%
- Average Survival Days (% of control group) (mouse melanoma B 16; melanoma B 16, daily dose 20 mg/kg): 158%
- Tumor Weight (Lewis's lung cancer; Table 7-1 Experiment 1 (control 9.6 ± 1.9), daily dose printed 20 unit/kg): 3.4 ± 0.7 g
- No. of Metastasized Nodes in Lung (Lewis's lung cancer; Table 7-1 Experiment 1 (control 29.2 ± 7.3), daily dose printed 20 unit/kg): 0.4 ± 0.2
- Tumor Weight (Lewis's lung cancer; Table 7-2 (control 7.8 ± 0.5), daily dose printed 20 unit/kg): 3.5 ± 0.6 g
- No. of Metastasized Nodes in Lung (Lewis's lung cancer; Table 7-2, daily dose printed 20 unit/kg): 0.6 ± 0.3

Compound: C[C@@H]1C[C@H]2[C@@H]3CCC4=CC(=O)C=C[C@]4(C)[C@@]3(F)[C@@H](O)C[C@]2(C)[C@@]1(O)C(=O)CO [Dexamethasone]
- Differentiation Rate [1]: 25%

Compound: CO[C@@]12[C@H](COC(N)=O)C3=C(C(=O)C(C)=C(N)C3=O)N1C[C@@H]1N[C@@H]12 [Mitomycin C]
- Concentration for 50% Inhibition of Growth (KB cells): 35 µg/mL
- IC50 (KB cells; [6]): 34 µg/mL (≈ 102 µM)
- Concentration for 50% Inhibition of Growth (HEp-2 cells): 18 µg/mL
- IC50 (HEp-2 cells; [6]): 17 µg/mL (≈ 50.8 µM)
- Concentration for 50% Inhibition of Growth (HEL cells): 25 µg/mL
- IC50 (HEL cells; [6]): 26 µg/mL (≈ 77.8 µM)
- IC50 (MX-1 cells; Homo sapiens, MX1, 48 h, read-out: Concentration for 50% Inhibition of Growth): 32 µg/mL (≈ 95.7 µM)
- Concentration for 50% Inhibition of Growth (MX-1 cells): 30 µg/mL
- Concentration for 50% Inhibition of Growth (L1210 cells): 44 µg/mL
- IC50 (L1210 cells; [7]): 43 µg/mL (≈ 129 µM)
- IC50 (P388 cells; [7]): 36 µg/mL (≈ 108 µM)
- Concentration for 50% Inhibition of Growth (P388 cells): 37 µg/mL
- IC50 (intestine 407 cells; Homo sapiens, Intestine 407, 48 h, read-out: Concentration for 50% Inhibition of Growth): 32 µg/mL (≈ 95.7 µM)
- Concentration for 50% Inhibition of Growth (intestine 407 cells; 48 h): 35 µg/mL
- Concentration for 50% Inhibition of Growth (Chang Liver cells): 21 µg/mL
- IC50 (Chang Liver cells; Homo sapiens, Chang liver, read-out: Concentration for 50% Inhibition of Growth): 19 µg/mL (≈ 56.8 µM)
- Concentration for 50% Inhibition of Growth (Vero cells): 50 µg/mL
- IC50 (Vero cells; Primates, Vero, read-out: Concentration for 50% Inhibition of Growth): 52 µg/mL (≈ 156 µM)
- Concentration for 50% Inhibition of Growth (MDCK cells): 44 µg/mL
- IC50 (MDCK cells; Canis lupus familiaris, MDCK, read-out: Concentration for 50% Inhibition of Growth): 41 µg/mL (≈ 123 µM)
- IC50 [2]: 61 µg/mL (≈ 182 µM)
- Cytotoxicity, selectivity for tumor cells over normal cells (in words) [3]: nonselective cytotoxicity to the normal cells and the tumor cells
- Average Survival Days (% of control group) (Sarcoma 180; Sarcoma 180, daily dose 0.5 mg/kg, 0.5 mg/kg): 140% and 138% and 142%
- Average Survival Days (% of control group) (Ehrlich ascites tumor; [8]): 168% and 164% and 166%
- Average Survival Days (% of control group) (mouse leukemia L1210; L1210, daily dose 0.5 mg/kg, 0.5 mg/kg): 128% and 136%
- Average Survival Days (% of control group) (mouse leukemia L1210; L1210, dose 5.0 mg/kg (Table 4-3)): 132%
- Average Survival Days (% of control group) (mouse leukemia P388; P388, daily dose 0.5 mg/kg, 0.5 mg/kg): 133% and 130%
- Average Survival Days (% of control group) (mouse leukemia P388; P388, dose 5.0 mg/kg (Table 4-3)): 141%
- Average Survival Days (% of control group) (Lewis's lung carcinoma; [8]): 121% and 120%
- Average Survival Days (% of control group) (mouse melanoma B 16; melanoma B 16, daily dose 0.5 mg/kg, 0.5 mg/kg): 140%
- Tumor Volume (human breast cancer MX-1): 4.4 ± 1.1 cm^3
- Tumor Volume [4]: 6.6 ± 1.3 cm^3

Compound: Tumor Necrosis Factor
- Cytotoxic effect, selectivity for tumor cells over normal cells (in words) [5]: selective cytotoxic effect on tumor cells
